According to PMC7554656 (Molecular Metabolism, 2020):

Target: T1, SGLT2 (sodium-glucose cotransporter 2) (Homo sapiens, UniProt P31639)
T1 sequence (P31639 1-672): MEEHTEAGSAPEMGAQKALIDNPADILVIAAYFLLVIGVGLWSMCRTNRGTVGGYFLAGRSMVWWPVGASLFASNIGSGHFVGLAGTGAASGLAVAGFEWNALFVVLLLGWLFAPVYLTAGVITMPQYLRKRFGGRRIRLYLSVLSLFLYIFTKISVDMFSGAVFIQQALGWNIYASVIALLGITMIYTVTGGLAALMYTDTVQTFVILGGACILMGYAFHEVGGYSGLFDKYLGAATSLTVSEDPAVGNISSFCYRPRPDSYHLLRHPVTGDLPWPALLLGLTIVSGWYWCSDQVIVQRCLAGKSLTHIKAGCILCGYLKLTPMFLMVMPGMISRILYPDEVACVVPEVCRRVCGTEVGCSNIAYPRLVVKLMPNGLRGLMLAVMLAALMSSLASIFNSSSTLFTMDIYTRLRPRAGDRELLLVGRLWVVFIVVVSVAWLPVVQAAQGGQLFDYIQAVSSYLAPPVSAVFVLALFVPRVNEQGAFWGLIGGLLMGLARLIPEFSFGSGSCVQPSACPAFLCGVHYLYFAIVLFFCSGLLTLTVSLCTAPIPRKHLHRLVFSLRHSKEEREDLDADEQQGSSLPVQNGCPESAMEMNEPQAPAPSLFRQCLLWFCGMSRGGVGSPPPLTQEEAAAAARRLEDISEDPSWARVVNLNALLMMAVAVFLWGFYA
Experiment: inhibition of […]-alpha-methyl-D-glucopyranoside uptake in HEK293-hSGLT2 cells
Assay type: cell-based

SMILES: OC[C@H]1O[C@@H](c2ccc(Cl)c(Cc3ccc(O[C@H]4CCOC4)cc3)c2)[C@H](O)[C@@H](O)[C@@H]1O [empagliflozin]
- EC50: 4.3 nM
